Here are results for 2 compounds from patent publication EP0026672B1, “Immobilized lactase and its use in hydrolysing lactose” (SUMITOMO CHEMICAL COMPANY, LIMITED, priority 1979, dated 1981).

As usually defined, the Ki is the equilibrium dissociation constant of an inhibitor or competing ligand from its target.

Test [1] deals with T1, lactase obtained from a strain of Aspergillus oryzae (extracellular enzyme, unimmobilized) (Aspergillus oryzae, UniProt Q2UCU3).
T1 construct: the lactase obtained from a strain of Aspergillus oryzae having; host or cells: Aspergillus oryzae (natural producer)
T1 sequence (Q2UCU3 19-1005): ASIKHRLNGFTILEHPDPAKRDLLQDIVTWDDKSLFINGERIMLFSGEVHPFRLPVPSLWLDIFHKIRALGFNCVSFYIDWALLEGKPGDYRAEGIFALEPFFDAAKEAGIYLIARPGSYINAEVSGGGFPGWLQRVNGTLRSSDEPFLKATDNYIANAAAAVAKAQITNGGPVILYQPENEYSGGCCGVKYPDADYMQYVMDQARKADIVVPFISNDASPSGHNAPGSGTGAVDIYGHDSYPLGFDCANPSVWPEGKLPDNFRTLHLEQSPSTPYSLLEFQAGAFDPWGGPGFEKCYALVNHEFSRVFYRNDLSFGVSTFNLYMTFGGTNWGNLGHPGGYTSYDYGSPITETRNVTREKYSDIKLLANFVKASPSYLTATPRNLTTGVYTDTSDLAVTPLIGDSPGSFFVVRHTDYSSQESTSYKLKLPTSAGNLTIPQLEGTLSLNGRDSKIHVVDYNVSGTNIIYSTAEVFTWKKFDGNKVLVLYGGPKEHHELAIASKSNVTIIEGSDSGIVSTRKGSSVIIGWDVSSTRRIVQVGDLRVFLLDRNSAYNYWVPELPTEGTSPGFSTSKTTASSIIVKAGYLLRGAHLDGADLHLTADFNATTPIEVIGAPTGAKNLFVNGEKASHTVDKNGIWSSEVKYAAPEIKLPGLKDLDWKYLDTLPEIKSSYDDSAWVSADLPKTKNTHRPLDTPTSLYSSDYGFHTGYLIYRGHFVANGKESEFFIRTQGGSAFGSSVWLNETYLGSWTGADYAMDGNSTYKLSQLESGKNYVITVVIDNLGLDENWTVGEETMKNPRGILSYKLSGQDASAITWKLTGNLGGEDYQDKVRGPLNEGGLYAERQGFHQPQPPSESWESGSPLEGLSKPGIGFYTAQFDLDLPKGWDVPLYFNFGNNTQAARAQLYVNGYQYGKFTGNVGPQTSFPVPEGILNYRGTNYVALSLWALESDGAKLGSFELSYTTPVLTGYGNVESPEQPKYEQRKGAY
The test can be described thus: Km and Ki of the unimmobilized lactase, lactose hydrolysis. The format is biochemical. How it is done:
Ki=7±4 mole/m^3 (0.007±0.004 molell) (pH 4.5, 30°C, substrate; lactose). It is believed that the characteristics of the lactase are well defined by the above data, and some other properties are given below:
In the present specification, 1 ILU is defined as the amount of lactase which produces 1 µ mole per minute of glucose at pH 4.5 at 30°C when a 13.3 w/v% of lactose solution is used as the substrate. The quantity of glucose thus prepared is defined by using glycose oxidase-peroxidase- dye system. When the measurement of the activity (unit) is carried out at a different pH or temperature, the pH or the temperature will specifically be given in each case.

Test [2] concerns the target T2, immobilized lactase: Aspergillus oryzae lactase covalently attached (glutaraldehyde) on macroporous amphoteric phenol-formaldehyde ion-exchange resin (Aspergillus oryzae, UniProt Q2UCU3).
T2 construct: the lactase originated from Aspergillus oryzae is immobilized on one of the carriers; host or cells: Aspergillus oryzae (natural producer)
The test can be described thus: Km and Ki of the immobilized lactase, general characteristics. The test is classed as biochemical. The note with it: pH 4.5, 30°C, substrate; lactose; value in brackets. The procedure:
The immobilized lactase (0.1 to 0.3 ml) is suspended in a 0.05M acetate buffer solution (pH 4.5). To this solution, a solution of lactose in the same kind of buffer solution as above is added to give a 13.3 w/v % lactose solution. The solution was shaken at 30°C for 15 minutes with a shaker (100 rpm, shaking width; 3.5 cm). After the removal of the immobilized lactase by filtration, the content of the glucose in the filtrate is determined using glucose oxidase, peroxidase and dye system. The amount of the enzyme which produces 1 p mole of glucose in one minute is defined as 1 unit (1 ILU). The pH level and the temperature of the measurement of the activity will be stated in each case in the specification.

`OC[C@H]1OC(O)[C@H](O)[C@@H](O)[C@H]1O` (stereo partly shown) [galactose]: the Ki in test [1] (read-out: Inhibition constant by galactose Ki, pH 4.5, 30°C, substrate, lactose, value in brackets) came out at 7 ± 4 mM. Moreover, the “Inhibition constant by galactose Ki” value in test [2] is 150 ± 100 mM.

As to `OC[C@H]1O[C@@H](O[C@H]2[C@H](O)[C@@H](O)C(O)O[C@@H]2CO)[C@H](O)[C@@H](O)[C@H]1O` (stereo partly shown) [lactose], the Km value in test [1] (lactase dry powder of Example 3 (Shinnihon Kagaku Kogyo Co., 73 ILU/mg)) is listed as 0.11 mole/I. Further, in test [2], the “Michaelis constant Km” value was 0.15±0.1 mole/I.
